Assay results taken from the supplement of paper PMC10307832.

Legend:
Assay in all cases: relative viability (nuclei count vs DMSO), 5 days (fraction); higher = more cells survive
Idelalisib + Lapatinib = compound: CC[C@H](Nc1ncnc2[nH]cnc12)c1nc2cccc(F)c2c(=O)n1-c1ccccc1 [Idelalisib] + CS(=O)(=O)CCNCc1ccc(-c2ccc3ncnc(Nc4ccc(OCc5cccc(F)c5)c(Cl)c4)c3c2)o1 [Lapatinib] (partner 2 µM)
Method in brief: (§1)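 The day after seeding in 1536-well plates, lung cancer cell lines were treated by pin tool with a single drug, or with a fixed anchor-drug dose together with five library-drug doses (not always all listed) in √10 steps. After 5 days, a combined fix-and-stain solution (final 0.05% Triton X-100, 1% formaldehyde, 1 ug/ml Hoechst) was added. Nuclei counted on 4× images gave relative viability as treated counts over vehicle counts, reported as the median of duplicate plates.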

Pemetrexed + Lapatinib = compound: Nc1nc2[nH]cc(CCc3ccc(C(=O)N[C@@H](CCC(=O)O)C(=O)O)cc3)c2c(=O)[nH]1 [Pemetrexed] + CS(=O)(=O)CCNCc1ccc(-c2ccc3ncnc(Nc4ccc(OCc5cccc(F)c5)c(Cl)c4)c3c2)o1 [Lapatinib] (partner 2 µM)
Method in brief: as §1

Pemetrexed + Linsitinib = compound: Nc1nc2[nH]cc(CCc3ccc(C(=O)N[C@@H](CCC(=O)O)C(=O)O)cc3)c2c(=O)[nH]1 [Pemetrexed] + C[C@]1(O)C[C@@H](c2nc(-c3ccc4ccc(-c5ccccc5)nc4c3)c3c(N)nccn32)C1 [Linsitinib] (partner 1 µM)
Method in brief: as §1

Idelalisib + Vorinostat = compound: CC[C@H](Nc1ncnc2[nH]cnc12)c1nc2cccc(F)c2c(=O)n1-c1ccccc1 [Idelalisib] + O=C(CCCCCCC(=O)Nc1ccccc1)NO [Vorinostat] (partner 1 µM)
Method in brief: as §1

Cell Line | relative viability (Idelalisib + Lapatinib; first compound 0.04 µM) | relative viability (Idelalisib + Lapatinib; first compound 0.1265 µM) | relative viability (Idelalisib + Lapatinib; first compound 0.4 µM) | relative viability (Idelalisib + Lapatinib; first compound 1.265 µM) | relative viability (Idelalisib + Lapatinib; first compound 4 µM) | relative viability (Pemetrexed + Lapatinib; first compound 0.002 µM) | relative viability (Pemetrexed + Lapatinib; first compound 0.006325 µM) | relative viability (Pemetrexed + Lapatinib; first compound 0.02 µM) | relative viability (Pemetrexed + Lapatinib; first compound 0.06325 µM) | relative viability (Pemetrexed + Lapatinib; first compound 0.2 µM) | relative viability (Pemetrexed + Linsitinib; first compound 0.002 µM) | relative viability (Pemetrexed + Linsitinib; first compound 0.006325 µM) | relative viability (Pemetrexed + Linsitinib; first compound 0.02 µM) | relative viability (Pemetrexed + Linsitinib; first compound 0.06325 µM) | relative viability (Pemetrexed + Linsitinib; first compound 0.2 µM) | relative viability (Idelalisib + Vorinostat; first compound 0.04 µM) | relative viability (Idelalisib + Vorinostat; first compound 0.1265 µM) | relative viability (Idelalisib + Vorinostat; first compound 0.4 µM) | relative viability (Idelalisib + Vorinostat; first compound 1.265 µM) | relative viability (Idelalisib + Vorinostat; first compound 4 µM)
RERF-LC-KJ | 0.763 | 0.872 | 0.814 | 0.83 | 0.789 | 0.739 | 0.835 | 0.842 | 0.892 | 0.692 | 0.856 | 0.845 | 0.926 | 0.912 | 0.752 | 0.826 | 0.754 | 0.725 | 0.697 | 0.512
NCI-H1975 | 0.966 | 0.99 | 0.836 | 0.889 | 0.61 | – | 0.885 | 0.906 | 0.78 | 0.423 | – | 0.904 | 1.06 | 0.793 | 0.526 | 0.693 | 0.776 | 0.681 | 0.671 | 0.588
IA-LM | 0.641 | 0.733 | 0.958 | 1.24 | 0.816 | 0.719 | 0.869 | 1.03 | 0.827 | 0.636 | 0.484 | 0.488 | 0.784 | 0.702 | 0.644 | 0.607 | 0.907 | 0.913 | 1.02 | 0.944
LCLC-97TM1 | 0.913 | 1.28 | – | 1.08 | 0.602 | 1.32 | 0.653 | 1.05 | 1.21 | 0.353 | 0.151 | 0.152 | 0.184 | 0.133 | 0.174 | 0.802 | 0.871 | 0.446 | 0.868 | 0.685
NCI-H520 | 0.776 | 0.999 | 0.717 | 0.923 | 0.684 | 0.803 | 0.886 | 0.833 | 0.829 | 0.838 | 0.946 | 0.911 | 0.926 | 1.09 | 0.956 | 0.768 | 0.708 | 0.669 | 0.722 | 0.488
A-427 | 1.11 | 1.06 | 1.04 | 1.07 | 1.04 | 0.974 | 1.06 | 1.09 | 1.14 | 0.819 | 1.02 | 1.09 | 1.08 | 1.13 | 1.1 | 0.921 | 0.889 | 0.833 | 0.901 | 0.874
ABC-1 | 1.11 | 1.19 | 1.13 | 1.01 | 1.08 | 1.35 | 1.16 | 1.25 | 1.05 | 1.16 | 0.904 | 0.804 | 0.828 | 0.753 | 0.713 | 1.01 | 1.13 | 0.751 | 1.03 | 1.39
NCI-H460 | 1.1 | 1.2 | 0.932 | 1.01 | 1.02 | 0.892 | 0.856 | 0.963 | 0.276 | 0.0581 | 0.75 | 0.697 | 0.782 | 0.166 | 0.0543 | 0.526 | 0.783 | 0.692 | 0.525 | 0.686
NCI-H1395 | 1.01 | 0.948 | 0.993 | 0.933 | 0.758 | 0.875 | 1.02 | 1.11 | 0.922 | 0.883 | 0.99 | 0.975 | 1.1 | 1.1 | 0.998 | 0.841 | 0.813 | 0.692 | 0.674 | 0.692
EBC-1 | 0.225 | 0.198 | 0.233 | 0.239 | 0.222 | 0.22 | 0.193 | 0.205 | 0.214 | 0.192 | 0.864 | 0.73 | 0.894 | 0.919 | 0.605 | – | – | – | – | –
NCI-H23 | 1.04 | 1.06 | 0.872 | 1.08 | 0.893 | 0.968 | 0.882 | 1.26 | 1.04 | 0.919 | 0.602 | 0.513 | 0.607 | 0.549 | 0.589 | 0.674 | 0.657 | 0.395 | 0.317 | 0.62
ChaGo-K-1 | – | – | – | – | – | – | – | – | – | – | – | – | – | – | – | 0.832 | 0.702 | 0.695 | 0.82 | 0.732
A549 | 0.96 | 0.996 | 0.924 | 0.923 | 0.832 | 0.841 | 0.947 | 1.13 | 0.987 | 0.973 | 0.568 | 0.569 | 0.645 | 0.57 | 0.709 | – | – | – | – | –
NCI-H1563 | 1.01 | 1.05 | 0.833 | 1 | 0.83 | 0.83 | 0.804 | 0.921 | 0.971 | 0.986 | 1.1 | 1.13 | 1.17 | 1.18 | 1.17 | – | – | – | – | –
NCI-H1703 | 1.53 | 1.03 | 0.961 | 1.29 | 0.618 | 1.02 | 0.865 | 1.59 | 0.9 | 0.976 | 0.889 | 0.943 | 1.08 | 0.64 | 0.731 | – | – | – | – | –
NCI-H1299 | 0.927 | 0.977 | 0.943 | 1.09 | 1.02 | 0.926 | 0.92 | 0.964 | 0.955 | 0.918 | 0.926 | 0.929 | 1.07 | 0.992 | 0.471 | – | – | – | – | –
NCI-H441 | – | – | – | – | – | – | – | – | – | – | 0.553 | 0.572 | 0.454 | 0.414 | 0.269 | 0.851 | 0.908 | – | 0.737 | 0.758
NCI-H522 | – | – | – | – | – | – | – | – | – | – | – | – | – | – | – | 0.964 | 0.846 | 0.929 | 0.901 | 0.956
NCI-H1648 | – | – | – | – | – | – | – | – | – | – | – | – | – | – | – | 0.395 | 0.483 | 0.357 | 0.224 | 0.31
NCI-H2170 | 0.285 | 0.267 | 0.242 | 0.29 | 0.29 | 0.302 | 0.282 | 0.268 | 0.293 | 0.297 | – | – | – | – | – | 0.732 | 0.805 | 0.761 | 0.716 | 0.669
